These results are taken from US12077503B2, “Substituted cyclic amides and their use as herbicides” (FMC CORPORATION, priority 2015, dated 2024).

Common to all, as to assay type: in vivo
The test system of test [1] is Galium (catchweed bedstraw, Galium aparine). Description: Test A postemergence. The settings on record: Galium, post-emergence, 240 h; for pest or weed control at 125 g/ha: 125 g ai/ha. The method in brief: (§1)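 Seeded soil received test chemicals as a preemergence directed spray, and seedlings at one to two leaves, 2–10 cm tall, received them postemergence, in a non-phytotoxic, surfactant-containing solvent mixture. Pots were held in a greenhouse for approximately 10 d, then rated for injury from 0, no effect, to 100, complete control.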

The test system of the next test is Kochia (Kochia scoparia). In words: Test A postemergence. The settings on record: Bassia scoparia, post-emergence, 240 h; for pest or weed control at 125 g/ha: 125 g ai/ha. The method in brief: as §1
The test system of test [2] is barnyardgrass (Echinochloa crus-galli). In words: Test A postemergence. The settings on record: Echinochloa crus-galli, post-emergence, 240 h; for pest or weed control at 125 g/ha: 125 g ai/ha. The method in brief: as §1
For test [3], the system named is blackgrass (Alopecurus myosuroides). Description: Test A postemergence. To be noted: Alopecurus myosuroides, post-emergence, 240 h; for pest or weed control at 125 g/ha: 125 g ai/ha. The method in brief: as §1
Another test concerns corn (Zea mays). Description: Test A postemergence. To be noted: Zea mays, post-emergence, 240 h; for Corn plant response rating (crop injury, 0 = no effect, 100 = complete kill) at 125 g/ha: postemergence, visual injury after approximately 10 d. The method in brief: as §1
The subject of test [4] is giant foxtail (Setaria faberii). Description: Test A postemergence. The settings on record: Setaria faberi, post-emergence, 240 h; for pest or weed control at 125 g/ha: 125 g ai/ha. The gist of the method: as §1
Test [5] concerns pigweed (Amaranthus retroflexus). In words: Test A postemergence. The settings on record: Amaranthus retroflexus, post-emergence, 240 h; for pest or weed control at 125 g/ha: 125 g ai/ha. The gist of the method: as §1
For test [6], the system named is ragweed (common ragweed, Ambrosia elatior). Description: Test A postemergence. The settings on record: Ambrosia artemisiifolia, post-emergence, 240 h; for pest or weed control at 125 g/ha: 125 g ai/ha. The method in brief: as §1
Test [7] has as its system ryegrass, Italian (Italian ryegrass, Lolium multiflorum). Description: Test A postemergence. The settings on record: Lolium multiflorum, post-emergence, 240 h; for pest or weed control at 125 g/ha: 125 g ai/ha. The gist of the method: as §1
For test [8], the system named is wheat (Triticum aestivum). In words: Test A postemergence. To be noted: Triticum aestivum, post-emergence, 240 h; for plant injury at 125 g/ha: 125 g ai/ha. The gist of the method:
as §1

In test [9] the test system is barnyardgrass (Echinochloa crus-galli). In words: Test B flooded paddy test. The settings on record: Echinochloa crus-galli, Flood, 250 g ai/ha, read-out: Barnyardgrass plant response rating. The method in brief:
(§2)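 Flooding to 3 cm over soil accompanied treatment, which consisted of adding compound to the standing water around 2-leaf plants; depth was then maintained. Visual assessment versus controls followed at 13 to 15 d (scale 0–100, 0 meaning no effect).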

Test [10] has as its system ducksalad (Heteranthera limosa). In words: Test B flooded paddy test. To be noted: Heteranthera limosa, Flood, 250 g ai/ha, read-out: Ducksalad plant response rating. The method in brief:
as §2

Another test concerns rice (Oryra sativa). In words: Test B flooded paddy test. To be noted: Oryza sativa, Flood, 250 g ai/ha, read-out: Rice plant response rating. The gist of the method:
as §2

The test system of test [11] is sedge, umbrella (small-flower umbrella sedge, Cyperus difformis). In words: Test B flooded paddy test. The settings on record: Cyperus difformis, Flood, 250 g ai/ha. The gist of the method: as §2
[12] abbreviates: postemergence, visual injury after approximately 10 d, 0 to 100 scale (0 no effect, 100 complete control), read-out: Plant response rating, Galium.
Setting [13] is: postemergence, visual injury after approximately 10 d, 0 to 100 scale (0 no effect, 100 complete control), read-out: Plant response rating, Kochia.
Where [14] appears, read: postemergence, visual injury after approximately 10 d, 0 to 100 scale (0 no effect, 100 complete control), read-out: Plant response rating, Barnyardgrass.
[15] abbreviates: postemergence, visual injury after approximately 10 d, 0 to 100 scale (0 no effect, 100 complete control), read-out: Plant response rating, Blackgrass.
[16] abbreviates: 125 g ai/ha, 0 to 100 scale (0 no effect, 100 complete control).
The mark [17] stands for this setting: postemergence, visual injury after approximately 10 d, 0 to 100 scale (0 no effect, 100 complete control), read-out: Plant response rating, Foxtail, Giant.
Where [18] appears, read: postemergence, visual injury after approximately 10 d, 0 to 100 scale (0 no effect, 100 complete control), read-out: Plant response rating, Pigweed.
Setting [19] is: postemergence, visual injury after approximately 10 d, 0 to 100 scale (0 no effect, 100 complete control), read-out: Plant response rating, Ragweed.
Setting [20] is: postemergence, visual injury after approximately 10 d, 0 to 100 scale (0 no effect, 100 complete control), read-out: Plant response rating, Ryegrass, Italian.
The mark [21] stands for this setting: postemergence, visual injury after approximately 10 d, 0 to 100 scale (0 no effect, 100 complete control), read-out: Plant response rating, Wheat.
Setting [22] is: scale of 0 to 100 where 0 is no effect and 100 is complete control.
Where [23] appears, read: scale of 0 to 100 where 0 is no effect and 100 is complete control, read-out: Sedge, Umbrella plant response rating.
[24] abbreviates: 0 to 100 scale where 0 is no effect and 100 is complete control.

Like-named read-outs stand apart in the source and are kept apart here.

Take `O=C1NC[C@H](c2ccc3c(c2)CCO3)[C@H]1C(=O)Nc1ccccc1F` [Compound 786]: the pest or weed control at 125 g/ha in test [1] (setting [12]) worked out at 10%; in the test on Kochia (Kochia scoparia) (setting [13]), 0%; in [2] (setting [14]) it was 80%; in [3] (setting [15]), 0%; in [4] (setting [17]), 40%; in test [5] (setting [18]), 0%. The pest or weed control at 125 g/ha in test [6] (setting [19]) and in test [7] (setting [20]) was 0% in each case. The compound further yielded a Corn plant response rating (crop injury, 0 = no effect, 100 = complete kill) at 125 g/ha with corn (Zea mays) (setting [16]) of 0%. Also, the plant injury at 125 g/ha in test [8] (setting [21]) is 0%. Besides, the pest or weed control at 250 g/ha in [9] (setting [22]) worked out at 0%; in test [10] (setting [22]) it was 70%; in the test on rice (Oryra sativa) (setting [22]), 0%; in [11] (setting [23]) it was 40%.

Regarding `COc1cc([C@H]2CN(C)C(=O)[C@@H]2C(=O)Nc2ccccc2SC)ccc1C(F)(F)F` [Compound 769], the pest or weed control at 125 g/ha in test [1] (setting [12]) amounted to 50%; in the test with Kochia (Kochia scoparia) (setting [13]), 0%; in [2] (setting [14]), 50%; in [3] (setting [15]), 0%; in test [4] (setting [17]) it was 70%; in [5] (setting [18]), 0%. Moreover, the pest or weed control at 125 g/ha in test [6] (setting [19]) was determined as 0%; in test [7] (setting [20]), 30%. Also, in the test on corn (Zea mays) (setting [16]), the Corn plant response rating (crop injury, 0 = no effect, 100 = complete kill) at 125 g/ha was determined as 0%. Also, the plant injury at 125 g/ha in test [8] (setting [21]) amounted to 0%. Also, the pest or weed control at 250 g/ha came out at 0% in test [9] (setting [22]), 80% in test [10] (setting [22]), 15% in the test on rice (Oryra sativa) (setting [22]) and 0% in test [11] (setting [23]).

Turning to `Cc1c(F)ccc([C@H]2CNC(=O)[C@@H]2C(=O)Nc2ccccc2F)c1F` [Compound 1326], the pest or weed control at 125 g/ha in [1] (Postemergence, visual rating about 10 d after treatment, read-out: Galium plant response rating (0 to 100 scale)) amounted to 0%; in the test on Kochia (Kochia scoparia) (Postemergence, visual rating about 10 d after treatment, read-out: Kochia plant response rating (0 to 100 scale)), 0%; in [2] (Postemergence, visual rating about 10 d after treatment, read-out: Barnyardgrass plant response rating (0 to 100 scale, 0 no effect, 100 complete control)), 70%; in test [3] (Postemergence, visual rating about 10 d after treatment, read-out: Blackgrass plant response rating (0 to 100 scale)), 0%; in test [4] (Postemergence, visual rating about 10 d after treatment, read-out: Foxtail, Giant plant response rating (0 to 100 scale)), 0%; in test [5] (Postemergence, visual rating about 10 d after treatment, read-out: Pigweed plant response rating (0 to 100 scale)) it was 0%. Further, the pest or weed control at 125 g/ha worked out at 0% in test [6] (Postemergence, visual rating about 10 d after treatment, read-out: Ragweed plant response rating (0 to 100 scale)) and 0% in [7] (Postemergence, visual rating about 10 d after treatment, read-out: Ryegrass, Italian plant response rating (0 to 100 scale)). Further, the pest or weed control at 500 g/ha in test [1] (Postemergence, 500 g ai/ha, visual injury, 0 to 100 scale (0 no effect, 100 complete control), approx. 10 d, read-out: Plant response rating, Galium) was 20%; in the test on Kochia (Kochia scoparia) (Postemergence, 500 g ai/ha, visual injury, 0 to 100 scale (0 no effect, 100 complete control), approx. 10 d, read-out: Plant response rating, Kochia), 0%; in [2] (Postemergence, 500 g ai/ha, visual injury, 0 to 100 scale (0 no effect, 100 complete control), approx. 10 d, read-out: Plant response rating, Barnyardgrass) it was 90%; in test [3] (Postemergence, 500 g ai/ha, visual injury, 0 to 100 scale (0 no effect, 100 complete control), approx. 10 d, read-out: Plant response rating, Blackgrass), 0%; in test [4] (Postemergence, 500 g ai/ha, visual injury, 0 to 100 scale (0 no effect, 100 complete control), approx. 10 d, read-out: Plant response rating, Foxtail, Giant), 0%; in test [5] (Postemergence, 500 g ai/ha, visual injury, 0 to 100 scale (0 no effect, 100 complete control), approx. 10 d, read-out: Plant response rating, Pigweed), 0%. Moreover, the pest or weed control at 500 g/ha in [6] (Postemergence, 500 g ai/ha, visual injury, 0 to 100 scale (0 no effect, 100 complete control), approx. 10 d, read-out: Plant response rating, Ragweed) is 0%; in test [7] (Postemergence, 500 g ai/ha, visual injury, 0 to 100 scale (0 no effect, 100 complete control), approx. 10 d, read-out: Plant response rating, Ryegrass, Italian), 20%. Besides, the plant injury at 125 g/ha in the test with corn (Zea mays) (125 g ai/ha, Postemergence, visual rating about 10 d after treatment, read-out: Corn plant response rating (0 to 100 scale)) was 0%; in test [8] (Postemergence, visual rating about 10 d after treatment, read-out: Wheat plant response rating (0 to 100 scale)) it was 0%. In addition, the Corn plant response rating (crop injury, 0 = no effect, 100 = complete kill) at 500 g/ha with corn (Zea mays) (Postemergence, 500 g ai/ha, visual injury, 0 to 100 scale (0 no effect, 100 complete control), approx. 10 d) is 0%. For the same compound, the plant injury at 500 g/ha in test [8] (Postemergence, 500 g ai/ha, visual injury, 0 to 100 scale (0 no effect, 100 complete control), approx. 10 d, read-out: Plant response rating, Wheat) is 0%. Besides, the pest or weed control at 250 g/ha in test [9] (setting [24]) is 0%; in [10] (setting [24]) it was 70%; in the test with rice (Oryra sativa) (setting [24]) it was 0%; in test [11] (360 h, visually evaluated after 13 to 15 d, read-out: Plant response rating, Sedge, Umbrella (0 to 100 scale where 0 is no effect and 100 is complete control)), 0%.
